Data reported in ChEMBL document CHEMBL4507264, “Data for DCP probe BAY-7598” (2021).
Calls of active or inactive are those of the source. The calls are words filed in the database; no cut-off is given here.

Key:
[1] = biological target: Epidermal growth factor receptor (Homo sapiens) (UniProt P00533); test: Inhibition of Epidermal Growth Factor (EGF) at 10 µM in the Eurofins-Panlabs radioligand binding assay (Eurofins_assay_225510); conditions: Compound concentration 10.0 uM
[2] = biological target: Adenosine receptor A3 (Homo sapiens) (UniProt P0DMS8); conditions: Compound concentration 10.0 uM
[3] = biological target: Sigma non-opioid intracellular receptor 1 (Homo sapiens) (UniProt Q99720); test: Sigma 1 Eurofins-Panlabs radioligand binding assay; set-up: ligand concentration 8 nM; conditions: Compound concentration 10.0 uM
Sigma non-opioid intracellular receptor 1 (Homo sapiens), sequence (Q99720 whole entry): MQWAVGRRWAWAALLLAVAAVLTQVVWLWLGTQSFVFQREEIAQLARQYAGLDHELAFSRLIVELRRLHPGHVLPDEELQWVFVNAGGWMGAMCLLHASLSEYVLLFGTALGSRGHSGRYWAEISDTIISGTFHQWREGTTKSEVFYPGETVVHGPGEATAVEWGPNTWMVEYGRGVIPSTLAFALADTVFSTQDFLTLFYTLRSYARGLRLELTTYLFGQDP

[4] = biological target: Glucocorticoid receptor (Homo sapiens) (UniProt P04150); conditions: Compound concentration 10.0 uM
[5] = biological target: Adenosine receptor A1 (Homo sapiens) (UniProt P30542); conditions: Compound concentration 10.0 uM
[6] = biological target: Adenosine receptor A2a (Homo sapiens) (UniProt P29274); conditions: Compound concentration 10.0 uM
[7] = biological target: Alpha-1A adrenergic receptor (Homo sapiens) (UniProt P35348); conditions: Rattus norvegicus; Compound concentration 10.0 uM
[8] = biological target: Kappa-type opioid receptor (Homo sapiens) (UniProt P41145); conditions: Compound concentration 10.0 uM
Kappa-type opioid receptor (Homo sapiens), sequence (P41145 whole entry): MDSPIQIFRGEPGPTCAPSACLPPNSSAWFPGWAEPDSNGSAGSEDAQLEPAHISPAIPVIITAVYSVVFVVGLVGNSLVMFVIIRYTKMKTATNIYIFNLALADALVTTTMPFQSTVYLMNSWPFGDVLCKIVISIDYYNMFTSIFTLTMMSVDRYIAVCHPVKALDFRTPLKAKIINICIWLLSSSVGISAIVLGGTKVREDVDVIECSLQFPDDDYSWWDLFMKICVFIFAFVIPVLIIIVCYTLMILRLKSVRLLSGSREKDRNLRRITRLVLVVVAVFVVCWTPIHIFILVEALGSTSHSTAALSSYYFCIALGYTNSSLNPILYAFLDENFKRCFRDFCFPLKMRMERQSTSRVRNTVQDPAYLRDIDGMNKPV

[9] = biological target: L-type calcium channel, dihydropyridine site (Cav1.2 alpha-1C) (Homo sapiens, UniProt Q13936); test: Inhibition of Calcium Channel L-Type, Dihydropyridine at 10 µM in the Eurofins-Panlabs radioligand binding assay (Eurofins_assay_214600); set-up: ligand concentration 0.1 nM, non-specific ligand with concentration 1 µM Nitrendipine, incubation time 90 min, incubation temperature 25 °C; conditions: Wistar, rat, rat cerebral cortex preparation, probe [3H] Nitrendipine; compound concentration 10 uM; target entry is the homologue from another species
[10] = biological target: Delta-type opioid receptor (Homo sapiens) (UniProt P41143); conditions: Compound concentration 10.0 uM
[11] = biological target: Neuropeptide Y receptor type 1 (Homo sapiens) (UniProt P25929); test: Inhibition of Neuropeptide Y Y1 at 10 µM in the Eurofins-Panlabs radioligand binding assay (Eurofins_assay_257010); conditions: Compound concentration 10.0 uM
[12] = biological target: Macrophage metalloelastase (Homo sapiens, UniProt P39900); test: Biophysical assay (SPR biosensor-based assay)
Macrophage metalloelastase, sequence (P39900 whole entry): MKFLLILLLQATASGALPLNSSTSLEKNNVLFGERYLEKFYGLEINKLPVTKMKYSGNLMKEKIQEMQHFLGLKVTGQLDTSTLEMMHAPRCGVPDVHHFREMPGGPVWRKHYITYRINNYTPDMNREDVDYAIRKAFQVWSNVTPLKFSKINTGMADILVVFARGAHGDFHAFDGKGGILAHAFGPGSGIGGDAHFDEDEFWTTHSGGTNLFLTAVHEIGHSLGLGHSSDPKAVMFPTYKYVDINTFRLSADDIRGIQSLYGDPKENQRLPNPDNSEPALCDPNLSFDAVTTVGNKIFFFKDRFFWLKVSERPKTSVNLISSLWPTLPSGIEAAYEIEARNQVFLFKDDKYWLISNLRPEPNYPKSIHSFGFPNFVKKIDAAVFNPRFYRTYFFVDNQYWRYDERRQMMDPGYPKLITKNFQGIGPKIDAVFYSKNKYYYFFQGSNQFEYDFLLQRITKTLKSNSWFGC

[13] = biological target: D(3) dopamine receptor (Homo sapiens) (UniProt P35462); conditions: Compound concentration 10.0 uM
D(3) dopamine receptor (Homo sapiens), sequence (P35462 whole entry): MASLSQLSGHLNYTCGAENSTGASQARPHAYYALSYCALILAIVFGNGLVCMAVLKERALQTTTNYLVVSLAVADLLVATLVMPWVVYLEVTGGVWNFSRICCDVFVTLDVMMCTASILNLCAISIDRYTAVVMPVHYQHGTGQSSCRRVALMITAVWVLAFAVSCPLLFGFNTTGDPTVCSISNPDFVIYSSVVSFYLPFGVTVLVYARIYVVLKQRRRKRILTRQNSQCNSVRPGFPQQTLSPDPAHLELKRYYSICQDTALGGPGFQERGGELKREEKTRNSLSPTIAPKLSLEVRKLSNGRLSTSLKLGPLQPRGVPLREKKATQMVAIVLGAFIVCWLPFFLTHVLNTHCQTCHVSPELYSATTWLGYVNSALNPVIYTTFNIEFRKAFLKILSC

[14] = biological target: T1, Muscarinic acetylcholine receptor M2 (Homo sapiens) (UniProt P08172); conditions: Compound concentration 10.0 uM
T1 sequence (whole entry): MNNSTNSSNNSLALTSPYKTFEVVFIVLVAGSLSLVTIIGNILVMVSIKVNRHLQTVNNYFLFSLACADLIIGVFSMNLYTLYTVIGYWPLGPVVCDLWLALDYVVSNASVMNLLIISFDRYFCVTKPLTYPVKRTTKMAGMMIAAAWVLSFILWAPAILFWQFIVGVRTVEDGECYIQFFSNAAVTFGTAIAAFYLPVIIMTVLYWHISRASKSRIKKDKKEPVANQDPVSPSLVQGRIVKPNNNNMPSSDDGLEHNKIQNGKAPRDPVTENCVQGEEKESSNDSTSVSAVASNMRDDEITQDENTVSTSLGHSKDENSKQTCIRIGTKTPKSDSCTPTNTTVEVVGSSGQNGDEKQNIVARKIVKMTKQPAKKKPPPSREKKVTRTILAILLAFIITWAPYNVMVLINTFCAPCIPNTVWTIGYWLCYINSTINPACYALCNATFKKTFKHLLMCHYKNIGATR

[15] = species: Rattus norvegicus; test: Inhibition of Glutamate, NMDA, Phencyclidine at 10 µM in the Eurofins-Panlabs radioligand binding assay (Eurofins_assay_233000); format: protein-complex assay; conditions: Compound concentration 10.0 uM
[16] = biological target: Endothelin receptor type B (Homo sapiens) (UniProt P24530); conditions: Compound concentration 10.0 uM
[17] = species: Mus musculus; test: Inhibition of Interleukin IL-1 at 10 µM in the Eurofins-Panlabs radioligand binding assay (Eurofins_assay_243520); set-up: ligand concentration 0.1 nM; conditions: Compound concentration 10.0 uM
[18] = biological target: voltage-gated sodium channel, site 2 (Rattus norvegicus, UniProt F1LQQ7+O08562+O88420+O88457+P04774+P04775+P08104+P15389+P15390+Q62968); test: Inhibition of Sodium Channel, Site 2 at 10 µM in the Eurofins-Panlabs radioligand binding assay (Eurofins_assay_279510); format: protein assay; set-up: ligand concentration 5 nM, non-specific ligand with concentration 100 µM Veratridine, incubation time 60 min, incubation temperature 37 °C; conditions: male, Wistar, rat whole brain (except cerebellum) membranes, probe [3H] Batrachotoxinin, compound concentration 10 uM
[19] = biological target: Platelet-activating factor receptor (Homo sapiens) (UniProt P25105); test: Inhibition of Platelet Activating Factor (PAF) at 10 µM in the Eurofins-Panlabs radioligand binding assay (Eurofins_assay_265010); conditions: Compound concentration 10.0 uM
[20] = biological target: T2, GABA-A receptor; anion channel (Rattus norvegicus) (UniProt O09028+P15431+P18506+P18508+P19969+P20236+P23574+P23576+P28471+P28473+P30191+P62813+P63079+P63138+Q91ZM7+Q9ES14); test: Inhibition of GABAA, Muscimol, Central at 10 µM in the Eurofins-Panlabs radioligand binding assay (Eurofins_assay_226500); format: protein-complex assay; conditions: Compound concentration 10.0 uM
[21] = biological target: Estrogen receptor (Homo sapiens) (UniProt P03372); conditions: Compound concentration 10.0 uM
Estrogen receptor (Homo sapiens), sequence (P03372 whole entry): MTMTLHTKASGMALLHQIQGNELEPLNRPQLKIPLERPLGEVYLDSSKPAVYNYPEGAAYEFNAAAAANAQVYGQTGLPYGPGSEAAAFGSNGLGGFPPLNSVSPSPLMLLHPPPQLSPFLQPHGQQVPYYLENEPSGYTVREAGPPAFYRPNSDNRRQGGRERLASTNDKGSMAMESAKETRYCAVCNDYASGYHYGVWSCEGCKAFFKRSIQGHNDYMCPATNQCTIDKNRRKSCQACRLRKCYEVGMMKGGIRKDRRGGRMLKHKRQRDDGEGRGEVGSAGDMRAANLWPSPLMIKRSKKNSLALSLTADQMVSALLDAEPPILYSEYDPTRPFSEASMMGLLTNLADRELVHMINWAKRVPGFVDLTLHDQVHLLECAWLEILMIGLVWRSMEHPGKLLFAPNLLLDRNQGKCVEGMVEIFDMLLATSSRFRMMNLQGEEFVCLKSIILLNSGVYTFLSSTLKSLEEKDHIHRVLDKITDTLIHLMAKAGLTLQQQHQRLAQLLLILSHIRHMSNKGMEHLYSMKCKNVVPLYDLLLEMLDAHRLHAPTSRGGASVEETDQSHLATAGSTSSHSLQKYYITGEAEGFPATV

[22] = biological target: Prostaglandin E2 receptor EP4 subtype (Homo sapiens) (UniProt P35408); test: Inhibition of Prostanoid EP4 at 10 µM in the Eurofins-Panlabs radioligand binding assay (Eurofins_assay_268420); set-up: ligand concentration 1 nM; conditions: Compound concentration 10.0 uM
[23] = species: Rattus norvegicus; test: Testosterone Eurofins-Panlabs radioligand binding assay; set-up: ligand concentration 1.5 nM; conditions: Compound concentration 10.0 uM
[24] = biological target: Sodium-dependent noradrenaline transporter (Homo sapiens) (UniProt P23975); conditions: Compound concentration 10.0 uM
[25] = biological target: T2, GABA-A receptor; anion channel (Rattus norvegicus); conditions: Compound concentration 10.0 uM
[26] = biological target: Sodium-dependent serotonin transporter (Homo sapiens) (UniProt P31645); conditions: Compound concentration 10.0 uM
Sodium-dependent serotonin transporter (Homo sapiens), sequence (P31645 whole entry, looked up): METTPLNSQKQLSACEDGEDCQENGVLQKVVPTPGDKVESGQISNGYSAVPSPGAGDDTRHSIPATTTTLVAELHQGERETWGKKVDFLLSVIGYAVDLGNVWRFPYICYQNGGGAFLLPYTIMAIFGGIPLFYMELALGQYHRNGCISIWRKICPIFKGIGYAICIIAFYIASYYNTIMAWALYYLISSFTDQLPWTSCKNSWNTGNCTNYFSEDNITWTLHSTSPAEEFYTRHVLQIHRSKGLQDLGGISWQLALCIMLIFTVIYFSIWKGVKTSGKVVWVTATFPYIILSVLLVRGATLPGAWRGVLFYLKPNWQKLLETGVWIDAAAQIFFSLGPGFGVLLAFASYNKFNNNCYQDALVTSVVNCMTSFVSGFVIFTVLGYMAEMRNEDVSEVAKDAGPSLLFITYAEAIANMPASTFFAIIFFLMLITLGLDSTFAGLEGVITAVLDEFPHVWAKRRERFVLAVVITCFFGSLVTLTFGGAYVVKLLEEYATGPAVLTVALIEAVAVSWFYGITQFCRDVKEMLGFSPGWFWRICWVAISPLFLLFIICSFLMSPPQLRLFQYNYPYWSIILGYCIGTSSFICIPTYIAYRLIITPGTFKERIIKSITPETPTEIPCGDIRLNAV

[27] = biological target: 5-hydroxytryptamine receptor 3A (Homo sapiens) (UniProt P46098); conditions: Compound concentration 10.0 uM
5-hydroxytryptamine receptor 3A (Homo sapiens), sequence (P46098 whole entry): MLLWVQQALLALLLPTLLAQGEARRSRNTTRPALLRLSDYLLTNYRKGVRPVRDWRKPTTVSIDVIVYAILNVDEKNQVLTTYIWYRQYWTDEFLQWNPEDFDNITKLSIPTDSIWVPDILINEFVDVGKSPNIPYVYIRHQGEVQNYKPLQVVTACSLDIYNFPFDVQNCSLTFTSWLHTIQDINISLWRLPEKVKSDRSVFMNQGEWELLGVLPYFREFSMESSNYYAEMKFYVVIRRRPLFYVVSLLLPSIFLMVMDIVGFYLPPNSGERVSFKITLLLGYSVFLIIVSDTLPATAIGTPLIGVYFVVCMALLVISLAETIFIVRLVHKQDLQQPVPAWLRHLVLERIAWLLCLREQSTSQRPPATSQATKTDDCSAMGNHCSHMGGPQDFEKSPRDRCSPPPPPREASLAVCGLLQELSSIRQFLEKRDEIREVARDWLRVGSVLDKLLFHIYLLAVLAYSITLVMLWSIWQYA

[28] = biological target: Voltage-dependent N-type calcium channel subunit alpha-1B (Homo sapiens) (UniProt Q00975); test: Inhibition of Calcium Channel N-Type at 10 µM in the Eurofins-Panlabs radioligand binding assay (Eurofins_assay_216000); conditions: Rattus norvegicus; Compound concentration 10.0 uM
[29] = biological target: ATP-sensitive inward rectifier potassium channel 11 (Cricetulus griseus) (UniProt A0A3L7HHE1); test: Inhibition of Potassium Channel [KATP] at 10 µM in the Eurofins-Panlabs radioligand binding assay (Eurofins_assay_265600); conditions: Cricetinae; Compound concentration 10.0 uM
[30] = biological target: Substance-P receptor (Homo sapiens) (UniProt P25103); test: Inhibition of Tachykinin NK1 at 10 µM in the Eurofins-Panlabs radioligand binding assay (Eurofins_assay_255520); set-up: ligand concentration 0.8 nM; conditions: Compound concentration 10.0 uM
Substance-P receptor (Homo sapiens), sequence (P25103 whole entry): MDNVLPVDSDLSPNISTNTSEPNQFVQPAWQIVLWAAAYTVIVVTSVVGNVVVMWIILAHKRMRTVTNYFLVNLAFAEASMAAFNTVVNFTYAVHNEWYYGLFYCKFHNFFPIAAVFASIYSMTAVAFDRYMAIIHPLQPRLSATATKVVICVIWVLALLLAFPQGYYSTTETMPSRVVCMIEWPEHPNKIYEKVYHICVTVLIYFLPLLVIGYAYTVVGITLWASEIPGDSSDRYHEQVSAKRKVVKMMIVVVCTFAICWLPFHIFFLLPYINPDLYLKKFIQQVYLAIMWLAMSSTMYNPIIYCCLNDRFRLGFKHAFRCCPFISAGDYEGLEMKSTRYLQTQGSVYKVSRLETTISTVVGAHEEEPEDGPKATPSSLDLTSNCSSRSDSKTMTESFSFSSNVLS

Epidermal growth factor receptor (Homo sapiens), sequence (P00533 whole entry): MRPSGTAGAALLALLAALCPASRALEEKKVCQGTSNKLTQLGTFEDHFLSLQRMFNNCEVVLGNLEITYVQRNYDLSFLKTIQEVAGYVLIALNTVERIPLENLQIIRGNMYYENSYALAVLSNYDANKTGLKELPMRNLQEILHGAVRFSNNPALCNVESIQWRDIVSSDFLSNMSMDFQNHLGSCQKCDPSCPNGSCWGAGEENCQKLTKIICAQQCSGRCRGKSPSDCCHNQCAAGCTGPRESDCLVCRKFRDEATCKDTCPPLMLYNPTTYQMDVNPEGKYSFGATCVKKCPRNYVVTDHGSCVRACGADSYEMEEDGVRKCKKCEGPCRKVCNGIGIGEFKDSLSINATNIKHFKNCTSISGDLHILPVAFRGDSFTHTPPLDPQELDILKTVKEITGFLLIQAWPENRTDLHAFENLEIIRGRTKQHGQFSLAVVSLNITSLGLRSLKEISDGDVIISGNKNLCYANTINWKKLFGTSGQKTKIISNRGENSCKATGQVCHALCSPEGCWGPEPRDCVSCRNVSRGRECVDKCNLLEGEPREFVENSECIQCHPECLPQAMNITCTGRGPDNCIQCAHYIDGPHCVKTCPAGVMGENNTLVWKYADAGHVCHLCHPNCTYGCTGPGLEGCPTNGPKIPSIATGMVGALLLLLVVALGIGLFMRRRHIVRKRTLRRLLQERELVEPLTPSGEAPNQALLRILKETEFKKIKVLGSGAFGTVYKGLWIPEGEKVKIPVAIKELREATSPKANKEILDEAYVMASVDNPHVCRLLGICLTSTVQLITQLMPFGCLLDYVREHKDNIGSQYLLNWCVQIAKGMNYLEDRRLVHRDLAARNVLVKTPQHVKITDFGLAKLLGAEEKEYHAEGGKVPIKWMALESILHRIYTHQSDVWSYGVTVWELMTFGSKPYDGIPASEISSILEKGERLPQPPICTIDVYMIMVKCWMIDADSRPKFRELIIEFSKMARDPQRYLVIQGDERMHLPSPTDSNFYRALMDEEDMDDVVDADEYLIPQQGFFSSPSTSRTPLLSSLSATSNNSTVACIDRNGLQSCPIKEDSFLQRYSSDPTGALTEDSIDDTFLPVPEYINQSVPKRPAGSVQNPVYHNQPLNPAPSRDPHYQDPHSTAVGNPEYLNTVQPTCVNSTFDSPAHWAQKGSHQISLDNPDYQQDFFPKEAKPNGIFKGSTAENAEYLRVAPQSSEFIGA

O=C(O)[C@H]1[C@H](Cn2nnc3ccccc3c2=O)CC[C@@H]1C(=O)c1ccc(OCCC2CCOCC2)cc1 [BAY-7598]
inhibition [1]: 7%
inhibition [2]: 13%
inhibition [3]: 15%
inhibition [4]: 12%
inhibition [5]: -2%
inhibition [6]: 7%
inhibition [7]: 1%
inhibition [8]: 7%
inhibition at 90 min, 10 µM [9]: 0% (not active)
inhibition [10]: 9%
inhibition [11]: 1%
Kd [12]: 4 pM (active)
inhibition [13]: 12%
inhibition [14]: 0%
inhibition [15]: 4%
inhibition [16]: 18%
inhibition [17]: 0%
inhibition at 60 min, 10 µM [18]: -1% (not active)
inhibition [19]: 6%
inhibition [20]: 10%
inhibition [21]: 2%
inhibition [22]: 19%
inhibition [23]: 12%
inhibition [24]: 6%
inhibition [25]: -2%
inhibition [26]: 9%
inhibition [27]: -7.84%
inhibition [28]: 6%
inhibition [29]: 9%
inhibition [30]: -4%
